In ChEMBL document CHEMBL1134747, “Synthesis and antifungal activities of novel 1,3-beta-D-glucan synthase inhibitors. Part 1” (Bioorg Med Chem Lett, 2001):
≈ marks a conversion by molar mass, not a printed value.

Experiments:
Mus musculus = assay: In vivo antifungal activity against systemic candidiasis in mouse model after a single iv administration; type: functional
Beta-1,3-glucan synthase = Beta-1,3-glucan synthase (Candida albicans, UniProt O13428); assay: Inhibition of 1,3-beta-D-glucan synthase (GS) from candida albicans
Beta-1,3-glucan synthase, sequence (O13428 whole entry): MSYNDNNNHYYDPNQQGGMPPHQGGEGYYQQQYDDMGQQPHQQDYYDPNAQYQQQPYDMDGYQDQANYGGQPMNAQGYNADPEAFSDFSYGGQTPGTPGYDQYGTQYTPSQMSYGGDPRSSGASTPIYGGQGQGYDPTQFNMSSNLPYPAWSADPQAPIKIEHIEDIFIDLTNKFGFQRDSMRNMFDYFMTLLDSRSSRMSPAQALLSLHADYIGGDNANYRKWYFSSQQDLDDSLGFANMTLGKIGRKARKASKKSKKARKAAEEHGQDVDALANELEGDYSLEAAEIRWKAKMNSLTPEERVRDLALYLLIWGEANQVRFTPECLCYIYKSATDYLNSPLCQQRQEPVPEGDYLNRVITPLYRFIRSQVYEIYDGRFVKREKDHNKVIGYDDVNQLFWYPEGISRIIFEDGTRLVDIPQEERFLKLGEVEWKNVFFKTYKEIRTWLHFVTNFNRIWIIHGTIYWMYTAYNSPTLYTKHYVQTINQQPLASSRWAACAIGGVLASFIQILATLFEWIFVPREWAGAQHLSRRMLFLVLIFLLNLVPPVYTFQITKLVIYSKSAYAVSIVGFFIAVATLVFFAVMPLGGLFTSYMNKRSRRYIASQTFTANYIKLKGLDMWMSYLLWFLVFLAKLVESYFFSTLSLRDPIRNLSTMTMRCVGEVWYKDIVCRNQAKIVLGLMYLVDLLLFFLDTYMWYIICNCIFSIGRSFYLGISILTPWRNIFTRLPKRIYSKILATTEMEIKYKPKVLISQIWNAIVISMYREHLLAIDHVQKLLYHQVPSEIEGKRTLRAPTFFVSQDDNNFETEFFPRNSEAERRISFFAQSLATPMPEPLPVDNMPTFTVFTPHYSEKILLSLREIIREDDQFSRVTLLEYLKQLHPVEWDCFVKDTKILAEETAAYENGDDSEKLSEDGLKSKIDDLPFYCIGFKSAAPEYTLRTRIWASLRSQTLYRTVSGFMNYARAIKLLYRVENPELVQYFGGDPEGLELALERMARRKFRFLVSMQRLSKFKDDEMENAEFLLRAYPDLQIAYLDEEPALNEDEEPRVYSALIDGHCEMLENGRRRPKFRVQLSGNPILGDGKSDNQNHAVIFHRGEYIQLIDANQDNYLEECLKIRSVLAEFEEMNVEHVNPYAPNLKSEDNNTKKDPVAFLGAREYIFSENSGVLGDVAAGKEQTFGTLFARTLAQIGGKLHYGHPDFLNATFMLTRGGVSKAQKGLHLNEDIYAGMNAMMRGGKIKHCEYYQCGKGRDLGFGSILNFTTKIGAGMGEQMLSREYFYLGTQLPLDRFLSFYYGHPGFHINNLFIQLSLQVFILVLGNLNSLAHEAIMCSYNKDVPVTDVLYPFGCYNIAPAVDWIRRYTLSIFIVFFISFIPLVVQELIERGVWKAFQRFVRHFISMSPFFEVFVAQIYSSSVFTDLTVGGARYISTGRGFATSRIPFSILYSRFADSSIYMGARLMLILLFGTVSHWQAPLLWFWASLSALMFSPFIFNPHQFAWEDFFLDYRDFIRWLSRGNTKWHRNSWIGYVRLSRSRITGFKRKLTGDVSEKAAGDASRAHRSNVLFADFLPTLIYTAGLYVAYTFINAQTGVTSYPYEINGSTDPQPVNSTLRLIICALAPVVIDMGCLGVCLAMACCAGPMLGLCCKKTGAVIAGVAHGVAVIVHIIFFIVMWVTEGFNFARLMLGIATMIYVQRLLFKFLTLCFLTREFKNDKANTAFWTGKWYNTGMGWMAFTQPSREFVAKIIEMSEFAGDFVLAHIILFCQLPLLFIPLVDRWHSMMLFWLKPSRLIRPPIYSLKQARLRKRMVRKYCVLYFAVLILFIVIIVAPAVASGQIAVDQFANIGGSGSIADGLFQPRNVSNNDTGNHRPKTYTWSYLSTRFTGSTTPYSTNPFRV

Candida albicans [1] = assay: In vitro antifungal activity against Candida albicans […] in the absence of 80% calf serum; type: functional, organism-based
Candida albicans [2] = assay: In vitro antifungal activity against Candida albicans CY1002 in the presence of 80% calf serum; type: functional, organism-based
[3] = Hepatotoxicity using isolated ICR mouse hepatocytes by inclusion body formation assay (In Vitro); type: functional, cell-based; settings: Hepatocyte
[4] = Hepatotoxicity determined using isolated ICR mouse hepatocytes by inclusion body formation assay (In Vitro); type: functional, cell-based; settings: Hepatocyte

SMILES	ED50 (Mus musculus) [mg/kg]	IC50 (Beta-1,3-glucan synthase) [µM]	IC50 (Candida albicans [1]) [mg/L]	IC50 (Candida albicans [2]) [mg/L]	IC50 [3] [mg/L]	IC50 [4] [mg/L]
CCCCCCCCCCCCC[C@@H]1CC(=O)N[C@@H]([C@@H](C)O)C(=O)N[C@H](C)C(=O)N[C@@H](Cc2ccc(O)cc2)C(=O)N[C@@H](C(C)C)C(=O)N2C[C@H](O)C[C@H]2C(=O)N[C@@H]([C@@H](C)O)C(=O)N[C@@H]([C@@H](C)O)C(=O)N2CC[C@H](O)[C@H]2C(=O)N[C@@H]([C@H](O)CCN)C(=O)NCC(=O)N[C@@H]([C@@H](C)O)C(=O)N[C@@H](CCN)C(=O)O1	0.04	0.006	0.01 (≈ 0.00664 µM)	0.18	10 (≈ 6.64 µM)	
CCCCCCCCCCCCC[C@@H]1CC(=O)N[C@@H]([C@@H](C)O)C(=O)N[C@H](C)C(=O)N[C@@H](Cc2ccc(O)cc2)C(=O)N[C@@H](C(C)C)C(=O)N2C[C@H](O)C[C@H]2C(=O)N[C@@H]([C@@H](C)O)C(=O)N[C@@H]([C@@H](C)O)C(=O)N2CC[C@H](O)[C@H]2C(=O)N[C@@H]([C@H](O)CC(N)=O)C(=O)NCC(=O)N[C@@H]([C@@H](C)O)C(=O)N[C@@H](CCCO)C(=O)O1		> 0.52				
CCCCCCCCCCCCC[C@@H]1CC(=O)N[C@@H]([C@H](C)O)C(=O)N[C@H](C)C(=O)N[C@@H](Cc2ccc(OCc3ccccc3)cc2)C(=O)N[C@@H](C(C)C)C(=O)N2C[C@H](O)C[C@H]2C(=O)N[C@H]([C@@H](C)O)C(=O)N[C@@H]([C@@H](C)O)C(=O)N2CC[C@H](O)[C@H]2C(=O)N[C@@H]([C@H](O)CC(N)=O)C(=O)NCC(=O)N[C@@H]([C@@H](C)O)C(=O)N[C@@H](CCCN)C(=O)O1		> 0.13				
CCCCCCCCCCCCC[C@@H]1CC(=O)N[C@@H]([C@@H](C)O)C(=O)N[C@H](C)C(=O)N[C@@H](Cc2ccc(O)cc2)C(=O)N[C@@H](C(C)C)C(=O)N2C[C@H](O)C[C@H]2C(=O)N[C@@H]([C@@H](C)O)C(=O)N[C@@H]([C@@H](C)O)C(=O)N2CC[C@H](O)[C@H]2C(=O)N[C@@H]([C@H](O)CC(N)=O)C(=O)NCC(=O)N[C@@H]([C@@H](C)O)C(=O)N[C@H](CCCNC(=O)C(N)CCCN)C(=O)O1 (some centres not stated)	0.1	0.005	0.12 (≈ 0.0728 µM)	0.33	30 (≈ 18.2 µM)	
CCCCCCCCCCCCC[C@@H]1CC(=O)N[C@@H]([C@@H](C)O)C(=O)N[C@H](C)C(=O)N[C@@H](Cc2ccc(O)cc2)C(=O)N[C@@H](C(C)C)C(=O)N2C[C@H](O)C[C@H]2C(=O)N[C@@H]([C@@H](C)O)C(=O)N[C@@H]([C@@H](C)O)C(=O)N2CC[C@H](O)[C@H]2C(=O)N[C@@H]([C@H](O)CC(N)=O)C(=O)NCC(=O)N[C@@H]([C@@H](C)O)C(=O)N[C@@H](CCCN(C)C)C(=O)O1		0.045				
CCCCCCCCCCCCC[C@@H]1CC(=O)N[C@@H]([C@H](C)O)C(=O)N[C@H](C)C(=O)N[C@@H](Cc2ccc(O)cc2)C(=O)N[C@@H](C(C)C)C(=O)N2C[C@H](O)C[C@H]2C(=O)N[C@@H]([C@@H](C)O)C(=O)N[C@@H]([C@@H](C)O)C(=O)N2CC[C@H](O)[C@H]2C(=O)N[C@@H]([C@H](O)CC(N)=O)C(=O)NCC(=O)N[C@@H]([C@@H](C)O)C(=O)N[C@@H](CCCNC(C)=O)C(=O)O1		0.23				
CCCCCCCCCCCCC[C@@H]1CC(=O)N[C@@H]([C@@H](C)O)C(=O)N[C@H](C)C(=O)N[C@@H](Cc2ccc(O)cc2)C(=O)N[C@@H](C(C)C)C(=O)N2C[C@H](O)C[C@H]2C(=O)N[C@@H]([C@@H](C)O)C(=O)N[C@@H]([C@@H](C)O)C(=O)N2CC[C@H](O)[C@H]2C(=O)N[C@@H]([C@H](O)CC(N)=O)C(=O)NCC(=O)N[C@@H]([C@@H](C)O)C(=O)N[C@@H](CCCNC(=O)OC(C)(C)C)C(=O)O1	0.22					
CCCCCCCCCCCCC[C@@H]1CC(=O)N[C@@H]([C@@H](C)O)C(=O)N[C@H](C)C(=O)N[C@@H](Cc2ccc(O)cc2)C(=O)N[C@@H](C(C)C)C(=O)N2C[C@H](O)C[C@H]2C(=O)N[C@@H]([C@@H](C)O)C(=O)N[C@@H]([C@@H](C)O)C(=O)N2CC[C@H](O)[C@H]2C(=O)N[C@@H]([C@H](O)CC(N)=O)C(=O)NCC(=O)N[C@@H]([C@@H](C)O)C(=O)N[C@@H](CCCNC(=O)C(N)CCCN)C(=O)O1 (some centres not stated)	0.2	0.008	0.08 (≈ 0.0485 µM)	0.47	10 (≈ 6.07 µM)	
CCCCCCCCCCCCC[C@@H]1CC(=O)N[C@@H]([C@@H](C)O)C(=O)N[C@H](C)C(=O)N[C@@H](Cc2ccc(O)cc2)C(=O)N[C@@H](C(C)C)C(=O)N2C[C@H](O)C[C@H]2C(=O)N[C@@H]([C@@H](C)O)C(=O)N[C@@H]([C@@H](C)O)C(=O)N2CC[C@H](O)[C@H]2C(=O)N[C@@H]([C@H](O)CC(N)=O)C(=O)NCC(=O)N[C@H]([C@@H](C)O)C(=O)N[C@@H](CCCN(CCN)CCN)C(=O)O1	0.05	0.002	0.1 (≈ 0.0617 µM)	0.42		10 (≈ 6.17 µM)
CCCCCCCCCCCCC[C@@H]1CC(=O)N[C@@H]([C@@H](C)O)C(=O)N[C@H](C)C(=O)N[C@@H](Cc2ccc(O)cc2)C(=O)N[C@@H](C(C)C)C(=O)N2C[C@H](O)C[C@H]2C(=O)N[C@@H]([C@@H](C)O)C(=O)N[C@@H]([C@@H](C)O)C(=O)N2CC[C@H](O)[C@H]2C(=O)N[C@@H]([C@H](O)CC#N)C(=O)NCC(=O)N[C@@H]([C@@H](C)O)C(=O)N[C@@H](CCN)C(=O)O1		0.019				
CCCCCCCCCCCCC[C@@H]1CC(=O)N[C@@H]([C@@H](C)O)C(=O)N[C@H](C)C(=O)N[C@@H](Cc2ccc(O)cc2)C(=O)N[C@@H](C(C)C)C(=O)N2C[C@H](O)C[C@H]2C(=O)N[C@@H]([C@@H](C)O)C(=O)N[C@@H]([C@@H](C)O)C(=O)N2CC[C@H](O)[C@H]2C(=O)N[C@@H]([C@H](O)CC(N)=O)C(=O)NCC(=O)N[C@@H]([C@@H](C)O)C(=O)N[C@@H](CCCN)C(=O)O1		0.012	0.02 (≈ 0.013 µM)	0.57	10 (≈ 6.52 µM)	
CCCCCCCCCCCCC[C@@H]1CC(=O)N[C@@H]([C@@H](C)O)C(=O)N[C@H](C)C(=O)N[C@@H](Cc2ccc(O)cc2)C(=O)N[C@@H](C(C)C)C(=O)N2C[C@H](O)C[C@H]2C(=O)N[C@@H]([C@@H](C)O)C(=O)N[C@@H]([C@@H](C)O)C(=O)N2CC[C@H](O)[C@H]2C(=O)N[C@@H]([C@H](O)CC(N)=O)C(=O)NCC(=O)N[C@H]([C@@H](C)O)C(=O)N[C@@H](CCCNC(=O)CN)C(=O)O1		0.02				
CCCCCCCCCCCCC[C@@H]1CC(=O)N[C@@H]([C@@H](C)O)C(=O)N[C@H](C)C(=O)N[C@@H](Cc2ccc(OC)cc2)C(=O)N[C@@H](C(C)C)C(=O)N2C[C@H](O)C[C@H]2C(=O)N[C@@H]([C@@H](C)O)C(=O)N[C@@H]([C@@H](C)O)C(=O)N2CC[C@H](O)[C@H]2C(=O)N[C@@H]([C@H](O)CC(N)=O)C(=O)NCC(=O)N[C@@H]([C@@H](C)O)C(=O)N[C@@H](CCCN)C(=O)O1		0.024				
